Columns and labels:
[1] = tested on: Hepatitis C virus; test: Antiviral activity against Hepatitis C virus genotype 1a in luciferase encoding genotype 1a replicons after 3 days by luciferase reporter assay; type: functional, organism-based, Hepacivirus hominis; conditions: subtype 1a, 72 h
[2] = tested on: Hepatitis C virus; test: Antiviral activity against Hepatitis C virus genotype 1b in luciferase encoding genotype 1b replicons after 3 days by luciferase reporter assay; type: functional, organism-based, Hepacivirus hominis; conditions: 72 h

| Structure (SMILES) | EC50 [1] [nM] | EC50 [2] [nM] |
| --- | --- | --- |
| CCC[C@H](NC(=O)[C@@H]1[C@H]2CCC[C@H]2CN1C(=O)[C@@H](NC(=O)[C@@H](NC(=O)c1cnccn1)C1CCCCC1)C(C)(C)C)C(=O)C(=O)NC1CC1 [TELAPREVIR] | 1250 | 1690 |
| C[C@@]1(O)[C@H](O)[C@@H](CO)O[C@H]1n1cnc2c(N)ncnc21 | 733 | 618 |
| COc1ccc2c(O[C@@H]3C[C@H]4C(=O)N[C@]5(C(=O)O)C[C@H]5/C=C\CCCCC[C@H](NC(=O)OC5CCCC5)C(=O)N4C3)cc(-c3csc(NC(C)C)n3)nc2c1 [CILUPREVIR] | 17 | – |
| CNC(=O)c1c(-c2ccc(F)cc2)oc2cc(N(CCO)S(C)(=O)=O)c(C3CC3)cc12 [NESBUVIR] | 45 | 22 |
